Laboratory results taken from patent publication US20090232731A1, “Cationic Liposomal Preparations for the Treatment of Rheumatoid Arthritis” (priority 2006, published 2009).

What was measured:
[1] = tested on: collagen induced arthritis; test: Collagen induced arthritis in B10RIII mice, clinical arthritis score (EndoTAG-1); assay type: in vivo; conditions: endpoint day 11; i.v. every second day; paclitaxel 2.56 mg/kg, Enbrel 10 mg/kg
[2] = tested on: collagen induced arthritis; test: Collagen induced arthritis in DBA/1 mice, clinical arthritis score (EndoMTX); assay type: in vivo; conditions: day 34; i.v. 3 times a week from day 15, 5.0 mg/kg methotrexate where loaded
Protocol: Male DBA/1 mice with an age of ten weeks at arrival were purchased from Taconic Europe and housed in isolated cages under save environmental conditions (Five mice per cage, 22° C., 30-70% humidity and 12 h light/dark cycle) with food and water ad libitum. Experimental design was reviewed and approved by local government.
Mice were assigned to the experimental groups acclimated at least 7 days before induction of collagen induced arthritis. Animals were anesthetized intraperitoneally (i.p.) with a mixture of Xylazin and Ketamin. Each animal obtained 4 ml/kg as application volume. 0.5 ml Rompun (20 mg/ml Xylazin) and 1 ml Ketamin (100 mg/ml Ketamin) were mixed (1:2) and diluted 1:4 in 4.5 ml 0.9% NaCl. 2. For the Collagen Type II-CFA emulsions, Collagen (bovine, 4 mg/ml) was mixed 1:1 with CFA by repeated passage through a flexible tube connecting two 1-ml syringes (syringe-syringe-method). This mixture was kept on ice and will be applied within 4 hours after preparation. For the immunization 100 μl Collagen/CFA-emulsion was injected subcutaneously at the base of the tail. The injection of Collagen/CFA-emulsion was done once on day 0 and once as a booster immunization on day 21. After two weeks the animals were controlled for symptoms of collagen induced arthritis (CIA) by joint scoring three times a week. […]

Row | Compound | order of antiarthritic efficacy (mean clinical arthritis score) [1] | order of antiarthritic efficacy (mean clinical arthritis score) [2]
1 | Enbrel | Enbrel>EndoTAG-1>EndoTAG-1 placebo and Taxol® | 
2 | CN(Cc1cnc2nc(N)nc(N)c2n1)c1ccc(C(=O)N[C@@H](CCC(=O)O)C(=O)O)cc1 [MTX, N-[4-[[(2,4-diamino-6-pteridinyl)methyl]methylamino]benzoyl]-L-glutamic acid] |  | EndoMTX>EndoMTX placebo>MTX
